The structures appear in SMILES notation.

This experiment deals with PIK3CA (UniProt P42336). As to the kind of experiment: In Vitro Inhibition of PIK3CA Kinase Activity.
PIK3CA, sequence (P42336 whole entry, looked up): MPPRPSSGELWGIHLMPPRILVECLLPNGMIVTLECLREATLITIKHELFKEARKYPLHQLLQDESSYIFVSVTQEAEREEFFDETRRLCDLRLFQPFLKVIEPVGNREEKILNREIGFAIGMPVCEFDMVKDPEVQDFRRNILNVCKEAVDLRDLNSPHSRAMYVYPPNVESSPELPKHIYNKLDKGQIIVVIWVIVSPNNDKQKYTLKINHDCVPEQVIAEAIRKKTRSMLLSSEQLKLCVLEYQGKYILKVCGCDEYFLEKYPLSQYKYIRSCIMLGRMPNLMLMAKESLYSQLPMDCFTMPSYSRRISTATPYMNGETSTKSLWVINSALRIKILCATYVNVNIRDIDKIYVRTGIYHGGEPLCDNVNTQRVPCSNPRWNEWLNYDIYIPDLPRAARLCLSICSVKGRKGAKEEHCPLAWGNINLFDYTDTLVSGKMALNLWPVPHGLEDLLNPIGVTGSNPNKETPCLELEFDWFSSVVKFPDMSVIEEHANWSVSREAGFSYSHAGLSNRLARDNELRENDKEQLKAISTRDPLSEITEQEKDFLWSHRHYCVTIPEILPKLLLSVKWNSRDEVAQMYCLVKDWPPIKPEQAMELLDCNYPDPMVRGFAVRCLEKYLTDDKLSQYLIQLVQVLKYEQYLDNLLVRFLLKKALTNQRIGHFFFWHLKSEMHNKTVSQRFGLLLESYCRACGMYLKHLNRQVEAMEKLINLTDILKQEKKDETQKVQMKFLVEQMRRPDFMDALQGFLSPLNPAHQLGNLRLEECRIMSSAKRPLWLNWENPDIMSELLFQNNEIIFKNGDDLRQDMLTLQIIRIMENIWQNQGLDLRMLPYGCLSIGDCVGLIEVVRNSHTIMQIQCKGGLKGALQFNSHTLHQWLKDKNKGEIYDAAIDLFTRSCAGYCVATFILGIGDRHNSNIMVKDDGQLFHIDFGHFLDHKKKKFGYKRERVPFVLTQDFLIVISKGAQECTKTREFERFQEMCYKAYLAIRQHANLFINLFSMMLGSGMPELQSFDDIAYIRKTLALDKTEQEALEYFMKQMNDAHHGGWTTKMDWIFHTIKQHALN

Usually IC50 stands for the concentration needed to halve the response being measured. A lower IC50 goes with greater potency. `O=c1cc(-c2ccc(Cl)cc2)oc(N2CCOCC2)c1` displayed an IC50 of 10 µM.
Compound `O=c1cc(-c2ccc(F)cc2)oc(N2CCOCC2)c1` displayed an IC50 of 13 µM.
In turn, `O=c1cc(N2CCOCC2)oc2cc3ccccc3cc12` registered an IC50 of 16 µM.
Turning to `O=c1cc(N2CCOCC2)nc2c3ccccc3ccn12`, the IC50 amounted to 750 µM.
As to `O=c1cc(N2CCOCC2)oc2c1ccc1ccccc12`, the IC50 is 20 µM. Against the preceding compound, the IC50 is about 38-fold lower.
`COc1ccc(-c2cc(=O)cc(N3CCOCC3)o2)cc1` had an IC50 of 15 µM.
`O=c1cc(N2CCOCC2)oc2ccc3ccccc3c12` came in with an IC50 of 11 µM. This IC50 and that of the compound before are within 1.5-fold of each other.
Next, `O=c1cc(N2CCSCC2)oc2c1ccc1ccccc12`: 6 µM; `CC(C)(C)c1ccc(-c2cc(=O)cc(N3CCOCC3)o2)cc1`: 37 µM; `O=c1cc(N2CCOCC2)oc2c3c(ccc12)CCCC3`: 18 µM.
Next, `CC1CN(c2cc(=O)c3ccc4ccccc4c3o2)CCO1` (stereo not given): 2.5 µM; `O=c1cc(N2CCOCC2)oc2cc(OCc3ccc(Cl)cc3)ccc12`: > 100 µM.
Turning to `O=c1cc(N2CCOCC2)oc2cc(OCc3ccc(F)cc3)ccc12`, the IC50 came to 95 µM. This counts as double-digit micromolar.
On to `O=C1c2ccccc2C(=O)N1CCCOc1ccc2c(=O)cc(N3CCOCC3)oc2c1`, for which the IC50 turned out to be 6 µM.
In the case of `O=c1cc(-c2ccccc2)oc(N2CCOCC2)c1` it was 30 µM.

The values above are taken from the Kinase Knowledgebase extract (Sharma et al. 2016).
